The experiment deals with T1, Recombinant full length human OGA enzyme (Homo sapiens, UniProt O60502).
T1 construct: Recombinant full length human OGA enzyme was purchased from Origene; purchased Origene
T1 sequence (O60502 1-916): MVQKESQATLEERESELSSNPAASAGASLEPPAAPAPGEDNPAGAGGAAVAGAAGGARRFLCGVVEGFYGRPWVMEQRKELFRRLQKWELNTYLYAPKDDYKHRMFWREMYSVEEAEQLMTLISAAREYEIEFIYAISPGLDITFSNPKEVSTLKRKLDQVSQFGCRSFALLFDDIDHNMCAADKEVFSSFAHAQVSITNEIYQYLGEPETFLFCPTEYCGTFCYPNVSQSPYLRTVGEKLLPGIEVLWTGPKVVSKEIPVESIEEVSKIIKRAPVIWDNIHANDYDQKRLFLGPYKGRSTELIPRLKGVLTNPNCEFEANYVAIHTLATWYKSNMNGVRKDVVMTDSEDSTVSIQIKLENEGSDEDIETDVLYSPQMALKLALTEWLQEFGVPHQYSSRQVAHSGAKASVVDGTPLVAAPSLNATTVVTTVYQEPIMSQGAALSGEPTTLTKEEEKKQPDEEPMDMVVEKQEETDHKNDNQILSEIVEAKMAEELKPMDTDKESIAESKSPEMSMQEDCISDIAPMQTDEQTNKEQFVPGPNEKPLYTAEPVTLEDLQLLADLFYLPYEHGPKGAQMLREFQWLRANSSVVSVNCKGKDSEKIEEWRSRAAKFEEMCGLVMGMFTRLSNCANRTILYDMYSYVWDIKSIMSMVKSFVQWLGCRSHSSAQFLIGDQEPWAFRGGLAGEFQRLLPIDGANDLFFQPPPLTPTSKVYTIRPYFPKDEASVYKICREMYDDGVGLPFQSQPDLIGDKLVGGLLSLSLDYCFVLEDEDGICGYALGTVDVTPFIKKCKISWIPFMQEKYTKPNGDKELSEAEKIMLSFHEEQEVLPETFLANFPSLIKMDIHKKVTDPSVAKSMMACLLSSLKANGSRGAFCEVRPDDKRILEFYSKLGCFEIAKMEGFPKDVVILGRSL
Description: OGA Enzyme Inhibition Biochemical Assay. Particulars: 1 nM OGA, 100 μM 4-MUGlcNAc (Km), pH 6.4, 90 minutes at room temperature, 10-point dose-response from 20 μM. Summed up:
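Full-length human OGA at 1 nM with 100 μM 4-MUGlcNAc (Km) in McIlvaine buffer pH 6.4 plus 0.01% BSA, 90 min at room temperature, then glycine pH 10 quench. Fluorescence read at Ex 355/Em 460 nm. 10-point, 4-fold dose-response from 20 μM, 4-parameter variable-slope fit.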
By IC50 is commonly meant the point on the concentration scale where inhibition reaches its midpoint. For `COc1cc(C[C@H]2CCCN(Cc3sc(NC(C)=O)nc3F)C2)ncn1` [Example 3-22, (R)-N-(4-fluoro-5-((3-((6-methoxypyrimidin-4-yl)methyl)piperidin-1-yl)methyl)thiazol-2-yl)acetamide], the half-maximal inhibitory concentration (IC50) was under 1 nM.
Then `COc1cc(C[C@H]2CCCN(Cc3cnc(NC(C)=O)s3)C2)ncn1` [Example 3-23, (R)-N-(5-((3-((6-methoxypyrimidin-4-yl)methyl)piperidin-1-yl)methyl)thiazol-2-yl)acetamide], with 1.3 nM.
Then `CC(=O)Nc1nc(F)c(CN2CC[C@H](Cc3cc(C)nc(C)c3)C2)s1` [Example 3-24, (S)—N-(5-((3-((2,6-dimethylpyridin-4-yl)methyl)pyrrolidin-1-yl)methyl)-4-fluorothiazol-2-yl)acetamide], with under 1 nM; and `CC(=O)Nc1nc(F)c(CN2CCC[C@H](Cc3cc(C)nc(C)c3)C2)s1` [Example 3-25, (R)-N-(5-((3-((2,6-dimethylpyridin-4-yl)methyl)piperidin-1-yl)methyl)-4-fluorothiazol-2-yl)acetamide], with under 1 nM; and `CC(=O)Nc1nc(F)c(CN2CC[C@H](Cc3ncc(F)cn3)C2)s1` [Example 3-26, (R)-N-(4-fluoro-5-((3-((5-fluoropyrimidin-2-yl)methyl)pyrrolidin-1-yl)methyl)thiazol-2-yl)acetamide], with 6.2 nM.
For the compound `CCC(=O)Nc1nc(F)c(CN2CC[C@H](Cc3ncc(F)cn3)C2)s1` [Example 3-27, (R)-N-(4-fluoro-5-((3-((5-fluoropyrimidin-2-yl)methyl)pyrrolidin-1-yl)methyl)thiazol-2-yl)propionamide], the 50% inhibitory concentration (IC50) amounted to 34 nM.
Consider `CC(=O)Nc1nc(F)c(CN2CC[C@H](Cc3cc(C)ncc3F)C2)s1` [Example 3-28, (S)—N-(4-fluoro-5-((3-((5-fluoro-2-methylpyridin-4-yl)methyl)pyrrolidin-1-yl)methyl)thiazol-2-yl)acetamide], for which the IC50 is 8.3 nM.
For `CC(=O)Nc1nc(F)c(CN2CC[C@H](Cc3cc(C)nc(C)n3)C2)s1` [Example 3-29, (R)-N-(5-((3-((2,6-dimethylpyrimidin-4-yl)methyl)pyrrolidin-1-yl)methyl)-4-fluorothiazol-2-yl)acetamide], the concentration for half-maximal inhibition (IC50) was 10 nM.
Consider `CC(=O)Nc1nc(F)c(CN2CC[C@H](Cc3cc(C)ncc3Cl)C2)s1` [Example 3-30, (S)—N-(5-((3-((5-chloro-2-methylpyridin-4-yl)methyl)pyrrolidin-1-yl)methyl)-4-fluorothiazol-2-yl)acetamide], for which the IC50 worked out at 5.1 nM.
Take `COc1cc(C[C@H]2CCN(Cc3sc(NC(C)=O)nc3F)C2)ncn1` [Example 3-31, (R)-N-(4-fluoro-5-((3-((6-methoxypyrimidin-4-yl)methyl)pyrrolidin-1-yl)methyl)thiazol-2-yl)acetamide]: the IC50 amounted to 14 nM.
`COc1cc(C[C@H]2CCN(Cc3sc(NC(C)=O)nc3F)C2)ccn1` [Example 3-32, (S)—N-(4-fluoro-5-((3-((2-methoxypyridin-4-yl)methyl)pyrrolidin-1-yl)methyl)thiazol-2-yl)acetamide]: the IC50 was found to be 8.9 nM.
For the compound `CC(=O)Nc1nc(F)c(CN2CC[C@H](Cc3ccnc(C)c3)C2)s1` [Example 3-33, (S)—N-(4-fluoro-5-((3-((2-methylpyridin-4-yl)methyl)pyrrolidin-1-yl)methyl)thiazol-2-yl)acetamide], the half-inhibitory concentration (IC50) amounted to 4.8 nM.
In the case of `COc1cc(C[C@@H]2CCN(Cc3sc(NC(C)=O)nc3F)C2)ncn1` [Example 3-34, (S)—N-(4-fluoro-5-((3-((6-methoxypyrimidin-4-yl)methyl)pyrrolidin-1-yl)methyl)thiazol-2-yl)acetamide], the IC50 came out at 8 nM.
As to `CC(=O)Nc1nc(F)c(CN2CC[C@@H](Cc3ncc(F)cn3)C2)s1` [Example 3-36, (S)—N-(4-fluoro-5-((3-((5-fluoropyrimidin-2-yl)methyl)pyrrolidin-1-yl)methyl)thiazol-2-yl)acetamide], the half-inhibitory concentration (IC50) amounted to 77 nM.

These data come from patent US11459324B2, “O-glycoprotein-2-acetamido-2-deoxy-3-D-glycopyranosidase inhibitors” (BIOGEN MA INC., priority 2018, dated 2022).
